Measurements reported in patent US12539292B2, “BRM targeting compounds and associated methods of use” (Arvinas Operations, Inc., priority 2018, dated 2026).
Like-named read-outs stand apart in the source and are kept apart here.

Molecular target: T1, BRM (Homo sapiens, UniProt P51531)
T1 construct: In-Cell Western Screen of BRM Degradation in SW1573 Cells; endogenous in cells; host or cells: SW1573
Assay: In-cell Western screen of BRM degradation in SW1573 cells (Dmax and DC50)
Assay type: cell-based
In short: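 Adherent SW1573 cultures exposed to test compounds for 18-20 h were processed for in-cell Western after PFA fixation and detergent permeabilization. BRM degradation was reported as Dmax and DC50.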

[1] = BRM degradation, read-out: BRM DC50
[2] = BRM degradation, SW1573 cells, Table 2D, read-out: *DC50
[3] = BRM degradation, SW1573 cells, read-out: DC50
[4] = BRM degradation, SW1573 cells, when tested at the top concentration of between 0.3 and 10 μM, read-out: Dmax (%) (% degraded)
[5] = SW1573, % degraded, when tested at the top concentration of between 0.3 and 10 μM, read-out: BRM Dmax (%)
[6] = BRM degradation, SW1573 cells, Table 2D, read-out: **Dmax (%) (% degraded)

T1 sequence (P51531 whole entry): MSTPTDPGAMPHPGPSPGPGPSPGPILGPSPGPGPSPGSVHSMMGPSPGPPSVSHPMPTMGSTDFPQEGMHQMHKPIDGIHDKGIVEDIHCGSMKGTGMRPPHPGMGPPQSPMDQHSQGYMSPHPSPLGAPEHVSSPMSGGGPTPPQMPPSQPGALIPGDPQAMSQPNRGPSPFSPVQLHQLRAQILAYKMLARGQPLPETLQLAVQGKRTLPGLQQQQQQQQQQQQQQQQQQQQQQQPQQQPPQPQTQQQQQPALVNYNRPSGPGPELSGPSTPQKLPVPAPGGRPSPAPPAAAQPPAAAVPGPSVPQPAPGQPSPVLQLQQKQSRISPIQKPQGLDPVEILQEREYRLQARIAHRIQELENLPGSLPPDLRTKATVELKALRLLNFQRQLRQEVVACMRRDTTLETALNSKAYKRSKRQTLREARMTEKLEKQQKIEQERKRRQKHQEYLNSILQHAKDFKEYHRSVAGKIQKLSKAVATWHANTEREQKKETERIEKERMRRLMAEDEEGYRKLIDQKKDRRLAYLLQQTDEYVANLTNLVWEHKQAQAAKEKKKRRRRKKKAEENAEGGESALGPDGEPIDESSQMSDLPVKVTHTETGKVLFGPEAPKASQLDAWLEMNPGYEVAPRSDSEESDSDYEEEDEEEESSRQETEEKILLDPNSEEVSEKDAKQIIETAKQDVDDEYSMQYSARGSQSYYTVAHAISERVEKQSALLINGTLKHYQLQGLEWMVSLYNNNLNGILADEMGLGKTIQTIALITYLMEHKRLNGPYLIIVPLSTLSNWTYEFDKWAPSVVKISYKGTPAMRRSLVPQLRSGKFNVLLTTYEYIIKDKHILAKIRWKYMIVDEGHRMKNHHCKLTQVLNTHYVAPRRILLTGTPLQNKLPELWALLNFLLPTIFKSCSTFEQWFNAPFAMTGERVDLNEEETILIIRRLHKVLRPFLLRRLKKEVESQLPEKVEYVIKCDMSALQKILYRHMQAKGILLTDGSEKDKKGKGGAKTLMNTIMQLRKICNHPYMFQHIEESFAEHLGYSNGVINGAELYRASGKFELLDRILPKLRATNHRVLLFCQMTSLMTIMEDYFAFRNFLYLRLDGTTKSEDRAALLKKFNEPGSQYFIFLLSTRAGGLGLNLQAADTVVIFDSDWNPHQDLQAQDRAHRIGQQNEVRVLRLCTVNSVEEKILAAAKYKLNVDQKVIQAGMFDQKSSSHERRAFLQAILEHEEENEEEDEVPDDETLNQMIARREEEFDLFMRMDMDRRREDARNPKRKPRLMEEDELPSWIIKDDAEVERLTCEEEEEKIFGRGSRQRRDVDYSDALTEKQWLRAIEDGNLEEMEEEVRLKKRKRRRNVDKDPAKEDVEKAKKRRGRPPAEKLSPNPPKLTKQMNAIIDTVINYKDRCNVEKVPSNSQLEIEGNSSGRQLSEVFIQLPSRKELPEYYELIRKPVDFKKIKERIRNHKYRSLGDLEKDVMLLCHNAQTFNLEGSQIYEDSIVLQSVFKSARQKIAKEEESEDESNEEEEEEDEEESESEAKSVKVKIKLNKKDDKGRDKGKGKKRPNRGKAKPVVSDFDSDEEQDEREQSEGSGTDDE

Compound	DC50 [1] [nM]	DC50 [3] [nM]	Dmax [5] [%]	further results
Cc1ncsc1-c1ccc([C@H](C)NC(=O)[C@@H]2C[C@@H](O)CN2C(=O)[C@@H](c2cc(N3CC(CN4CC(COc5cc(N6C7CCC6CN(c6cc(-c8ccccc8O)nnc6N)C7)ccn5)C4)C3)no2)C(C)C)cc1 [compound 519, (2S,4R)-1-((2R)-2-(3-(3-((3-(((4-(3-(3-amino-6-(2-hydroxyphenyl)pyridazin-4-yl)-3,8-diazabicyclo[3.2.1]octan-8-yl)pyridin-2-yl)oxy)methyl)azetidin-1-yl)methyl)azetidin-1-yl)isoxazol-5-yl)-3-methylbutanoyl)-4-hydroxy-N-((S)-1-(4-(4-methylthiazol-5-yl)phenyl)ethyl)pyrrolidine-2-carboxamide]	> 30			
Cc1ncsc1-c1ccc([C@H](C)NC(=O)[C@@H]2C[C@@H](O)CN2C(=O)[C@H](c2cc(OCCC3CCN(C[C@H]4C[C@H](Oc5cc(N6C7CCC6CN(c6cc(-c8ccccc8O)nnc6N)C7)ccn5)C4)CC3)no2)C(C)C)c(F)c1F [compound 587, (2S,4R)-1-((2S)-2-(3-(2-(1-(((1r,3S)-3-((4-(3-(3-amino-6-(2-hydroxyphenyl)pyridazin-4-yl)-3,8-diazabicyclo[3.2.1]octan-8-yl)pyridin-2-yl)oxy)cyclobutyl)methyl)piperidin-4-yl)ethoxy)isoxazol-5-yl)-3-methylbutanoyl)-N-((S)-1-(2,3-difluoro-4-(4-methylthiazol-5-yl)phenyl)ethyl)-4-hydroxypyrrolidine-2-carboxamide]				DC50 [2]: > 30 nM
Cc1ncsc1-c1ccc(CNC(=O)[C@@H]2C[C@@H](O)CN2C(=O)[C@@H](c2cc(OCCOCCOCCOCCOCCn3cc(-c4cc(-c5ccccc5O)nnc4N)cn3)no2)C(C)C)cc1 [compound 19, (2S,4R)-1-[(2R)-2-[3-[(14-[4-[3-amino-6-(2-hydroxyphenyl)pyridazin-4-yl]-1H-pyrazol-1-yl]-3,6,9,12-tetraoxatetradecan-1-yl)oxy]-1,2-oxazol-5-yl]-3-methylbutanoyl]-4-hydroxy-N-[[4-(4-methyl-1,3-thiazol-5-yl)phenyl]methyl]pyrrolidine-2-carboxamide]		10 to 30		Dmax [4]: > 75%
Cc1ncsc1-c1ccc([C@H](C)NC(=O)[C@@H]2C[C@@H](O)CN2C(=O)[C@@H](c2cc(OCCN3CCC(O[C@H]4C[C@H](OCCN5CCOC6(CCN(c7cc(-c8ccccc8O)nnc7N)CC6)C5)C4)CC3)no2)C(C)C)cc1 [compound 359, (2S,4R)-1-((R)-2-(3-(2-(4-((1r,3R)-3-(2-(9-(3-amino-6-(2-hydroxyphenyl)pyridazin-4-yl)-1-oxa-4,9-diazaspiro[5.5]undecan-4-yl)ethoxy)cyclobutoxy)piperidin-1-yl)cthoxy)isoxazol-5-yl)-3-methylbutanoyl)-4-hydroxy-N-((S)-1-(4-(4-methylthiazol-5-yl)phenyl)ethyl)pyrrolidine-2-carboxamide]			> 75	DC50 (target protein degradation, read-out: BRM DC50): < 2.5 nM
Cc1ncsc1-c1ccc([C@H](C)NC(=O)[C@@H]2C[C@@H](O)CN2C(=O)[C@@H](c2cc(OCCN3CCN(CCOc4cc(N5C6CCC5CN(c5cc(-c7ccccc7O)nnc5N)C6)ccn4)C[C@@H]3C)no2)C(C)C)cn1 [compound 509, (2S,4R)-1-((2R)-2-(3-(2-((2S)-4-(2-((4-(3-(3-amino-6-(2-hydroxyphenyl)pyridazin-4-yl)-3,8-diazabicyclo[3.2.1]octan-8-yl)pyridin-2-yl)oxy)ethyl)-2-methylpiperazin-1-yl)ethoxy)isoxazol-5-yl)-3-methylbutanoyl)-4-hydroxy-N-((S)-1-(6-(4-methylthiazol-5-yl)pyridin-3-yl)ethyl)pyrrolidine-2-carboxamide]	< 2.5		> 75	
Cc1ncsc1-c1ccc([C@H](C)NC(=O)[C@@H]2C[C@@H](O)CN2C(=O)[C@@H](c2cc(OCCN3C4CC3CN(CCOc3cc(N5C6CCC5CN(c5cc(-c7ccccc7O)nnc5N)C6)ccn3)C4)no2)C(C)C)cc1 [compound 132, (2S,4R)-1-((2R)-2-(3-(2-(3-(2-((4-(3-(3-amino-6-(2-hydroxyphenyl)pyridazin-4-yl)-3,8-diazabicyclo[3.2.1]octan-8-yl)pyridin-2-yl)oxy)ethyl)-3,6-diazabicyclo[3.1.1]heptan-6-yl)ethoxy)isoxazol-5-yl)-3-methylbutanoyl)-4-hydroxy-N-((S)-1-(4-(4-methylthiazol-5-yl)phenyl)ethyl)pyrrolidine-2-carboxamide]		2.5 to 10		Dmax [4]: > 75%
Cc1cc([C@H](C(=O)N2C[C@H](O)C[C@H]2C(=O)N[C@@H](COCCCCCc2cc(-c3ccccc3O)nnc2N)c2ccc(-c3scnc3C)cc2)C(C)C)on1 [compound 530, (2S,4R)-N-((R)-2-((5-(3-amino-6-(2-hydroxyphenyl)pyridazin-4-yl)pentyl)oxy)-1-(4-(4-methylthiazol-5-yl)phenyl)ethyl)-4-hydroxy-1-((R)-3-methyl-2-(3-methylisoxazol-5-yl)butanoyl)pyrrolidine-2-carboxamide]	> 30			
Cc1ncsc1-c1cnc([C@H](C)NC(=O)[C@@H]2C[C@@H](O)CN2C(=O)[C@@H](c2cc(OCCN3CCC(O[C@H]4C[C@H](Oc5cc(N6C7CCC6CN(c6cc(-c8ccccc8O)nnc6N)C7)ccn5)C4)CC3)no2)C(C)C)cn1 [compound 491, (2S,4R)-1-((2R)-2-(3-(2-(4-((1r,3R)-3-((4-(3-(3-amino-6-(2-hydroxyphenyl)pyridazin-4-yl)-3,8-diazabicyclo[3.2.1]octan-8-yl)pyridin-2-yl)oxy)cyclobutoxy)piperidin-1-yl)ethoxy)isoxazol-5-yl)-3-methylbutanoyl)-4-hydroxy-N-((S)-1-(5-(4-methylthiazol-5-yl)pyrazin-2-yl)ethyl)pyrrolidine-2-carboxamide]	< 2.5		> 75	
Cc1ncsc1-c1ccc([C@H](C)NC(=O)[C@@H]2C[C@@H](O)CN2C(=O)[C@@H](c2cc(OCCC3CCN(C[C@H]4C[C@H](N5CCC(CN6CCOC7(CCN(c8cc(-c9ccccc9O)nnc8N)CC7)C6)CC5)C4)CC3)no2)C(C)C)cc1 [compound 598, (2S,4R)-1-((R)-2-(3-(2-(1-(((1r,3R)-3-(4-((9-(3-amino-6-(2-hydroxyphenyl)pyridazin-4-yl)-1-oxa-4,9-diazaspiro[5.5]undecan-4-yl)methyl)piperidin-1-yl)cyclobutyl)methyl)piperidin-4-yl)ethoxy)isoxazol-5-yl)-3-methylbutanoyl)-4-hydroxy-N-((S)-1-(4-(4-methylthiazol-5-yl)phenyl)ethyl)pyrrolidine-2-carboxamide]				Dmax [6]: > 75%; DC50 [2]: < 2.5 nM
Cc1cc([C@H](C(=O)N2C[C@H](O)C[C@H]2C(=O)N[C@@H](C)c2ccc(-c3scnc3C)cc2)[C@@H](C)COCCCCOc2cc(N3C4CCC3CN(c3cc(-c5ccccc5O)nnc3N)C4)ccn2)on1 [compound 432, (2S,4R)-1-((2R,3R)-4-(4-((4-(3-(3-amino-6-(2-hydroxyphenyl)pyridazin-4-yl)-3,8-diazabicyclo[3.2.1]octan-8-yl)pyridin-2-yl)oxy)butoxy)-3-methyl-2-(3-methylisoxazol-5-yl)butanoyl)-4-hydroxy-N-((S)-1-(4-(4-methylthiazol-5-yl)phenyl)ethyl)pyrrolidine-2-carboxamide]			> 75	DC50 (degradation of BRM, read-out: BRM DC50): 10 to 30 nM
Cc1ncsc1-c1ccc([C@H](C)NC(=O)[C@@H]2C[C@@H](O)CN2C(=O)[C@@H](c2cc(N3CCC(O)(CN4CCC(O[C@H]5C[C@H](Oc6cc(N7C8CCC7CN(c7cc(-c9ccccc9O)nnc7N)C8)ccn6)C5)CC4)CC3)no2)C(C)C)cc1 [compound 645, (2S,4R)-1-((2R)-2-(3-(4-((4-((1r,3r)-3-((4-(3-(3-amino-6-(2-hydroxyphenyl)pyridazin-4-yl)-3,8-diazabicyclo[3.2.1]octan-8-yl)pyridin-2-yl)oxy)cyclobutoxy)piperidin-1-yl)methyl)-4-hydroxypiperidin-1-yl)isoxazol-5-yl)-3-methylbutanoyl)-4-hydroxy-N-((S)-1-(4-(4-methylthiazol-5-yl)phenyl)ethyl)pyrrolidine-2-carboxamide]		< 2.5		Dmax (BRM degradation, SW1573 cells, read-out: Dmax (% degraded)): > 75%
CC(=O)NCC#Cc1ncsc1-c1ccc([C@H](C)NC(=O)[C@@H]2C[C@@H](O)CN2C(=O)C(c2cc(OCCN3CCN(CCOc4cc(N5C6CCC5CN(c5cc(-c7ccccc7O)nnc5N)C6)ccn4)CC3)no2)C(C)C)cc1 (stereo partly drawn) [compound 175, (2S,4R)-N-((S)-1-(4-(4-(3-acetamidoprop-1-yn-1-yl)thiazol-5-yl)phenyl)ethyl)-1-(2-(3-(2-(4-(2-((4-(3-(3-amino-6-(2-hydroxyphenyl)pyridazin-4-yl)-3,8-diazabicyclo[3.2.1]octan-8-yl)pyridin-2-yl)oxy)ethyl)piperazin-1-yl)ethoxy)isoxazol-5-yl)-3-methylbutanoyl)-4-hydroxypyrrolidine-2-carboxamide]		2.5 to 10		Dmax (BRM degradation, SW1573 cells, tested at the top concentration of between 0.3 and 10 μM, read-out: Dmax (%) (% degraded)): > 75%
Cc1ncsc1-c1cc(F)c([C@H](C)NC(=O)[C@@H]2C[C@@H](O)CN2C(=O)[C@@H](c2cc(OCCN3CCC(O[C@H]4C[C@H](Oc5cc(N6C7CCC6CN(c6cc(-c8ccccc8O)nnc6N)C7)ccn5)C4)CC3)no2)C(C)C)cn1 [compound 539, (2S,4R)-1-((2R)-2-(3-(2-(4-((1r,3R)-3-((4-(3-(3-amino-6-(2-hydroxyphenyl)pyridazin-4-yl)-3,8-diazabicyclo[3.2.1]octan-8-yl)pyridin-2-yl)oxy)cyclobutoxy)piperidin-1-yl)ethoxy)isoxazol-5-yl)-3-methylbutanoyl)-N-((S)-1-(4-fluoro-6-(4-methylthiazol-5-yl)pyridin-3-yl)ethyl)-4-hydroxypyrrolidine-2-carboxamide]				Dmax [6]: > 75%; DC50 [2]: < 2.5 nM
